Biological target: T1, Arylsulfatase (EC 3.1.6.1) aus Aerobacter aerogenes (Klebsiella aerogenes, UniProt P20713)
T1 construct: purchased Sigma S-1629
T1 sequence (P20713 21-464): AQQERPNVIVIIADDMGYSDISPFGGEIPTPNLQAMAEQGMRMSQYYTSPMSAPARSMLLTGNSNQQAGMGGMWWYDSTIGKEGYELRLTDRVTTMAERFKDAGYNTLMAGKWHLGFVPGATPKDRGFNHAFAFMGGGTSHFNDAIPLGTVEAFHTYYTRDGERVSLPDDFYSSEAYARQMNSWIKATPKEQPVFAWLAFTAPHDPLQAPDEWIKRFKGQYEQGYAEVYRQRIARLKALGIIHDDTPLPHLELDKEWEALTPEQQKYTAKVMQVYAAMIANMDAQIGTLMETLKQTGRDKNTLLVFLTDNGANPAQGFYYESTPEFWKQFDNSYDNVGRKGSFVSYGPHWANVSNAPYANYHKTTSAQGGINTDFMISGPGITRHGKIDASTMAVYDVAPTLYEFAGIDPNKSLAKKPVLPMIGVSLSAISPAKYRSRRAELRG
Test: Arylsulfatase enzyme inhibition test (Sigma sulfatase assay S-1629, p-nitrophenyl sulfate substrate, spectrophotometric at 420 nm)
Format: biochemical
Conditions: raw material as supplied in aqueous solution; 187 mM Tris/HCl pH 7,1, 8 mM pNPS, 0,05 U/ml Arylsulfatase, 37°C
From the text: Da die hautrelevante Arylsulfatase nicht zur Verfügung stand, diente eine handelsübliche Arylsulfatase (EC 3.1.6.1) aus Aerobacter aerogenes als Modellenzym, um die Hemmwirkung der erfindungsgemäß verwendeten Inhibitoren zu testen. Die Tests wurden mit dem Sulfatase-Enzymassay Product No. S-1629 von Sigma gemäß den Angaben im Sigma Quality Control Test Procedure-Datenblatt durchgeführt. Als Referenz-Inhibitoren dienten Ascorbinsäure und ATP.
Zur Auswertung wurde die Arylsulfatase-katalysierte Bildung von p-Nitrophenol aus dem Substrat p-Nitrophenylsulfat (pNPS) spektrophotometrisch (λ = 420 nm) verfolgt. Die Reaktionslösungen von 1000 µl, die auf eine Reaktionstemperatur von 37°C temperiert wurden, enthielten 187 mM Tris/HCl (pH 7,1), 8 mM pNPS und eine Startkonzentration von 0,05 U/ml Arylsulfatase. Die Einheit U der Enzymaktivität wurde so definiert, dass 1 U Sulfatase 1,0 µmol pNPS pro Minute bei pH 7,1 und 37°C hydrolysiert. Die Testdurchführung ist auch offenbart bei H.R. Fowler und D. H. Rammler, Biochemistry 3, 230, 1964.
Die Reaktion wurde durch Zugabe des Enzyms gestartet und der Anstieg der Absorption bei λ = 420 nm über 5 Minuten verfolgt. Der lineare Anstieg der Absorption (A) pro Zeiteinheit (t) ist hierbei ein Maß für die Aktivität des Enzyms (ΔA/Δt). Die Aktivität des Enzyms in Abwesenheit eines Inhibitors, (ΔA1/Δt1 ), wurde als Referenz gleich 100% gesetzt. […]

## COc1cc2c(cc1O)CCC(C)(C)O2 [Lipochroman-6, 3,4-Dihydro-7-methoxy-2,2-dimethyl-2H-1-benzopyran-6-ol]
  Konzentration mit einer inhibierenden Wirkung von 50 %: 0,1 Gew.-% Rohstoff tel quel in wässriger Lösung

Source: patent EP1430879A2, “Arylsulfatase inhibitors in deodorants and antiperspirants” (Henkel Kommanditgesellschaft auf Aktien, priority 2002, dated 2004)
